These results are taken from US20050014676A1, “Methods for delaying or inducing labor” (Boston Biomedical Research Institute, priority 2003, published 2005).

“Also recorded” adds a separate entry of the source.

Data set [1] has as its system 20-kDa myosin light chain (LC20). Put plainly: Measurement of myosin light chain 20 phosphorylation (LC20-P) in permeabilized myometrial strips. More on the design: species or system rat. The conditions noted are these: 51 mM KCl stimulated for 4 min myometrial strips. The protocol: Measurements of myosin light chain 20 phosphorylation (LC20-P). Tissue preparation was as described above. After equilibration and stretching, the myometrial strips were permeabilized with 20 μg/ml alpha-toxin (List Biological Lab, Campbell, Calif.) at 34° C. for 30 min. The intracellular Ca2+ concentration was clamped at pCa7.0 for 12 min to prevent an artifactual triggering of contractions in response to the freezing solution. The measurement of LC20-P was performed by glycerol urea gels and western blots as previously published (Je et al., J. Physiol. 537, 567-577 (2001)). Moles phosphate per mole myosin light chain was calculated by dividing the density of the phosphorylated band by the sum of densities of phosphorylated plus the unphosphorylated bands.

Data set [2] relates to pregnant rats and pups. Put plainly: Fetal weight and toxicity to mothers and pups. The class given is in vivo, rat. The conditions noted are these: for Fetal number/rat / Fetal weight: gestation day 20; for Fetal weight: (n) in brackets. The source says:
Animals and treatment groups. All procedures were approved by our institutional animal care and use committee (IACUC). Sprague-Dawley nonpregnant and time-mated, primigravid pregnant rats (day 1=sperm positive, Taconic, Germantown, N.Y.) were used for the experiments. They were housed in a constant-temperature room with a 12-hr light and 12-hr dark cycle. Food and water were available ad libitum. The rats were divided into five groups: nonpregnant (NP), sham, RU486 treated (RU), U0126+RU486 treated (U0+RU) and spontaneous labor (SL). The sequential scheme of the experiment is illustrated in FIG. 1.
Induction of preterm labor: In the RU group, rats (n=6) were treated with RU486 subcutaneously (SC) at dose of 2 mg/kg (concentration of 3 mg/ml in sunflower seed oil) at 10 am on day 19 of pregnancy. Then the rats were closely observed for signs of labor on day 20 of pregnancy.
U0126 treatment: In the U0+RU group, 18-day pregnant rats (n=6) were treated with U0126 at dose of 100 mg/kg, SC, q8h (7 am, 3 pm and 11 pm). U0126 was dissolved at a concentration of 200 mg/ml in DMSO. On day 19 of pregnancy, the rats were administrated RU486 at 10 am for preterm labor induction. The U0126 treatment continued till the onset of labor.
Tissue preparation and force recording.

Data set [3] relates to myometrial strips. Description: In vitro myometrial contractility (isometric force, AUC) of strips from treated rats.
The test system of data set [4] is Sprague-Dawley pregnant rats. Description: RU486-induced preterm labor in rats, onset of labor. Particulars: for average delivery time after RU486 administration: RU486 2 mg/kg SC at 10 am day 19 of pregnancy, U0126 100 mg/kg SC q8h from day 18 until labor, mean±SEM.
Data set [5] deals with ERK2. Description: Western blot of myometrial ERK2 phosphorylation (p-ERK2/ERK2). The arrangement: species or system rat. The conditions noted are these: myometrium at onset of labor. How it is done: (§1) Western blot analysis. The muscle strips were quick-frozen in a dry ice acetone/DTT/TCA slurry at the end of force recording experiment. Samples were homogenized in a buffer containing 20 mM MOPS, 4% SDS, 1% Triton, 10% glycerol, 10 mM DTT, 20 mM β-glycerophosphate, 5.5 μM leupeptin, 5.5 μM pepstatin A, 20 KIU aprotinin, 2 mM Na3VO4, 1 mM NaF, 20 μM 4-(2-aminorthyl) benzenesulphonyl fluoride (AEBSF) and 100 μM ZnCl2. Protein-matched samples were SDS-PAGE electrophoresed, transferred to Immobilon-P membrane (Millipore, Bedford, Mass.), and subjected to immunostaining using the appropriate antibody. Blots were visualized with a SuperSignal West Pico Peroxide Solution (Pierce, Rockford, Ill.). The images were detected with a chemiluminescence screen and quantified with a BioRad Molecular Imager and Multi-Analyst software.
On the technique in general: In western blotting, separated proteins are transferred to a membrane and probed.

For data set [6], the system named is high molecular weight caldesmon (h-CaD). Description: Western blot of myometrial h-CaD phosphorylation (Ser789). The arrangement: species or system rat. Particulars: myometrium at onset of labor. The protocol: as §1

With `[Cl-].[K+]` [KCI], the “LC20-P level, positive control” value in data set [1] is recorded as 39.68±3.33.
For the molecule `CC#C[C@]1(O)CC[C@H]2[C@@H]3CCC4=CC(=O)CCC4=C3[C@@H](c3ccc(N(C)C)cc3)C[C@@]21C` [RU486, 11 β-[4-Dimethylamino] phenyl-17β-hydroxy-17-[1-propynyl] estra-4,9-dien-3-one], in data set [2], the Fetal number/rat is listed as 13.4 and the Fetal weight was 2.46 ± 0.068 (16) grams. Also, the “area under force curve (AUC) normalized to tissue dry weight” value in data set [3] (strips from treated rats at labor, force integrated over 15 min) worked out at 381.49 ± 44.92 g·s/mg. Also, the “average delivery time after RU486 administration” value in data set [4] (n=6) came out at 22.25 ± 0.24 h. This molecule yielded an average gestational length in data set [4] (RU486-induced preterm labor, Mean±SD, n=6) of 20.35 ± 0.02 days.
`N#CC(=C(N)Sc1ccccc1N)C(C#N)=C(N)Sc1ccccc1N` [U0126, 1,4-diamino-2,3-dicyano-1,4-bis (2-aminophenylthio) butadiene]: in data set [2] (U0126 at doses sufficient to delay preterm labor), the “signs of toxicity to mother or offspring” value is recorded as “no apparent signs of toxicity; also recorded: no obvious signs of toxicity”. Further, the “effect on fetal weight” value in data set [2] (U0126 treatment) was “did not affect fetal weight”. In data set [2] (data not shown), the “daily weight gain or general behavior of pregnant rats, U0+RU vs RU group” value is on record as “no difference”. For the same molecule, in data set [2], the Fetal number/rat came out at 12.3 and the Fetal weight is on record as 2.46 ± 0.036 (31) grams. Further, the “myometrial AUC once labor commenced, vs RU486 or spontaneous labor” value in data set [3] (U0+RU group) is reported as “indistinguishable”. Besides, the “average delivery time after RU486 administration” value in data set [4] (n=6) stood at 25.18 ± 0.64 h. Also, the “delay of RU486-induced preterm labor” value in data set [4] (U0126 pretreatment, rats) is reported as “delays RU486-induced preterm labor in a statistically significant manner”. Besides, in data set [5], the “ERK2 phosphorylation (p-ERK2/ERK2), words” value was “indistinguishable”. The “h-CaD phosphorylation normalized to CaD protein, words” value in data set [6] is given as “indistinguishable”.
